“And” between values parts separate entries of the source, which are not always exact repeats. Identical values can stand only once. “Also recorded” adds a separate entry of the source.
Columns and labels:
Format in all cases: in vivo, human
[1] = test system: patients with moderate to severe dry eye symptoms/MGD; assay: Meibomian gland dysfunction (MGD) score, Example 2; set-up: key to Day 0 MGD RE / Day 0 MGD LE / FV MGD RE / FV MGD LE: 1=meibomian glands in all 3 regions secreting/cloudy; 2=meibomian glands in 2 out of 3 regions secreting/cloudy; 3=meibomian glands in 1 out of 3 regions secreting/cloudy; 4=no observable meibomian gland secretion in any of the 3 regions; 2+ and 2,3 are used interchangeably and mean more than ⅔<1; 2+ and 2,3 are used interchangeably and mean more than ⅔<1
From the text: (§1) Twenty nine patients, each diagnosed as having moderate to severe dry eye symptoms/MGD, were selected for the study.
Patients were classified as having none, mild, or moderate meibomian gland secretion blockage by evaluating the secretion of the meibomian glands in the nasal, central, and temporal regions of the lower eyelid. MGD was scored using a 0-4 grading scale, 4 correlating with severe dysfunction. A summary of the grading scale is provided below: • 1=meibomian glands in all 3 regions secreting/cloudy • 2=meibomian glands in 2 out of 3 regions secreting/cloudy • 3=meibomian glands in 1 out of 3 regions secreting/cloudy • 4=no observable meibomian gland secretion in any of the 3 regions • 2+ and 2,3 are used interchangeably and mean more than ⅔<1.
(§2) After the initial baseline evaluation, patients received daily doses of a dietary supplement containing 210 mg of C16:1n7-palmitoleate for over 30 days.
(§3) Tear osmolarity (TL) and MGD for left and right eyes (LE and RE respectively) were scored at Day 0 (baseline evaluation) and at the follow-up visit (FV), see Table 2. A tear osmolarity score of below 308 mOsms/L is normal, 308-320 mOsms/L is mild dry eyes, 320-340 mOsms/L is moderate dry eyes, and above 340 mOsms/L is severe dry eye. The terms ‘above’ and ‘below’ refer to values above and below the detectable range of the Tearlab diagnostic device respectively. Patients also recorded their comments regarding perceived improvements of their dry eye symptoms.

[2] = test system: patients diagnosed with dry eye disease; assay: Tear osmolarity in patients with dry eye disease, Example 1
Protocol: (§4) Patients diagnosed with dry eye disease (as determined by having tear osmolarity over 308 mOsms/L, which is the clinical minimum for dry eyes, per eye) were treated daily with a dietary supplement containing 210 mg of C16:1n7-palmitoleate for 30 days.
(§5) Tear osmolarity for left and right eyes were scored at day 1 and day 30, see Table 1. A tear osmolarity score of below 308 mOsms/L is normal, 308-320 mOsms/L is mild dry eyes, 320-340 mOsms/L is moderate dry eyes, and above 340 mOsms/L is severe dry eye. At day 30, patients also ranked their feeling of improvement of dry eye on a scale of 1-10, see Table 1.

[3] = test system: patients with moderate to severe dry eye symptoms/MGD; assay: Patient comments on perceived improvement of dry eye symptoms, Example 2; details: patient's comment after 210 mg daily for over 30 days; one line per patient
Protocol: as §1, §2, §3

[4] = test system: patients diagnosed with dry eye disease; assay: Patient ranking of symptom improvement, Example 1; details: patient's ranking at day 30, 210 mg daily; one line per patient 1-8
Protocol: as §4, §5

[5] = test system: patients with moderate to severe dry eye symptoms/MGD; assay: Tear osmolarity (TL) in patients with dry eye symptoms/MGD, Example 2
Protocol: as §1, §2, §3

Which “Day 0 MGD LE” value ([1]; MGD score 0-4 (4 severe), left eye, Day 0 baseline before treatment, one line per patient) does the source give for `CCCCCC/C=C\CCCCCCCC(=O)O` [C16:1n7-palmitoleate] here?
The value was 2 (2×) and 4 (14×) and 2+ (2×) and 3 (8×).

What about the “Day 0 MGD RE” value ([1]; MGD score 0-4 (4 severe), right eye, Day 0 baseline before treatment, one line per patient) of the same compound?
Its value is 3 (9×) and 4 (14×) and 2+ (2×) and 2.

What about the “FV MGD LE” value ([1]; MGD score 0-4, left eye, follow-up visit after 210 mg daily for over 30 days, one line per patient) of the same compound?
The value was 1 (8×) and 3 (6×) and 2 (7×) and 1, and 2+ and 4 (4×) and 0.

What about the “FV MGD RE” value ([1]; MGD score 0-4, right eye, follow-up visit after 210 mg daily for over 30 days, one line per patient) of the same compound?
The value was 1 (9×) and 3 (5×) and 2+ and 2 (6×) and 1, and 4 (5×) and 0.

What about the “MG secretion in patients with severe MGD scores initially” value ([1]; patients 1, 4-7, 11-13, 15-16, 20-22, 24 and 27) of the same compound?
The value was “showed improvement in MG secretion”.

What about the “Tear Osmolarity Day 1, left eye” value ([2]; Day 1 (start of treatment), left eye, one line per patient 1-8, below 308 normal, 308-320 mild, 320-340 moderate, above 340 severe) of the same compound?
Its value is “Left eye 294 mOsms/L; also recorded: Left eye 333 mOsms/L; also recorded: Left eye 312 mOsms/L; also recorded: Left eye 351 mOsms/L; also recorded: Left eye 322 mOsms/L; also recorded: Left eye 314 mOsms/L; also recorded: Left eye 347 mOsms/L; also recorded: Left eye 332 mOsms/L”.

What about the “Tear Osmolarity Day 1, right eye” value ([2]; Day 1 (start of treatment), right eye, one line per patient 1-8) of the same compound?
Its value is “Right eye 362 mOsms/L; also recorded: Right eye 305 mOsms/L; also recorded: Right eye 340 mOsms/L; also recorded: Right eye 382 mOsms/L; also recorded: Right eye 325 mOsms/L; also recorded: Right eye 341 mOsms/L; also recorded: Right eye 328 mOsms/L; also recorded: Right eye 367 mOsms/L”.

What about the “Tear Osmolarity Day 30, left eye” value ([2]; Day 30 of daily dietary supplement with 210 mg, left eye, one line per patient 1-8) of the same compound?
Its value is “Left eye 300 mOsms/L; also recorded: Left eye 302 mOsms/L; also recorded: Left eye 293 mOsms/L; also recorded: Left eye 314 mOsms/L; also recorded: Left eye 301 mOsms/L; also recorded: Left eye 308 mOsms/L; also recorded: Left eye 313 mOsms/L”.

And the “Tear Osmolarity Day 30, right eye” value ([2]; Day 30 of daily dietary supplement with 210 mg, right eye, one line per patient 1-8)?
The value was “Right eye 314 mOsms/L; also recorded: Right eye 300 mOsms/L; also recorded: Right eye 308 mOsms/L; also recorded: Right eye 302 mOsms/L; also recorded: Right eye 299 mOsms/L; also recorded: Right eye 307 mOsms/L; also recorded: Right eye 367 mOsms/L; also recorded: Right eye 310 mOsms/L”.

And the “Dry eye severity after 30 days in patients with at least one severe dry eye initially” value ([2]; patients 1, 2, 5 and 7, 30 days of treatment)?
The value was “normal or very mild dry eyes”.

And the “Comment (perceived improvement of dry eye symptoms)” value [3]?
Its value is “great (4×) and good (19×) and poor and Better and happy (2×) and better”.

And the “Symptom Improvement (Scale of 1-10)” value [4]?
Its value is 4 (2×) and 7 (2×) and 6 (2×) and 8 and 3.

What about the “Day 0 TL LE” value ([5]; left eye, Day 0 baseline before treatment, one line per patient) of the same compound?
The value was 311 mOsms/L and 307 mOsms/L (2×) and 349 mOsms/L (2×) and 312 mOsms/L and 314 mOsms/L (3×) and above (2×) and 324 mOsms/L and 339 mOsms/L and 308 mOsms/L and 364 mOsms/L (2×) and 361 mOsms/L and 317 mOsms/L (2×) and 302 mOsms/L and 326 mOsms/L and 356 mOsms/L and 320 mOsms/L and 313 mOsms/L and 358 mOsms/L and 323 mOsms/L and 327 mOsms/L.

What about the “FV TL LE” value ([5]; left eye, follow-up visit after 210 mg daily for over 30 days, one line per patient) of the same compound?
Its value is 317 mOsms/L and 298 mOsms/L and 303 mOsms/L (2×) and 291 mOsms/L and 310 mOsms/L and 316 mOsms/L and 314 mOsms/L and 299 mOsms/L (2×) and 354 mOsms/L and 352 mOsms/L and 330 mOsms/L and 324 mOsms/L and 331 mOsms/L and 327 mOsms/L and 300 mOsms/L and above and 305 mOsms/L and below (2×) and 308 mOsms/L and 323 mOsms/L and 311 mOsms/L and 306 mOsms/L.

And the “Day 0 TL RE” value ([5]; right eye, Day 0 baseline before treatment, one line per patient 1-29, above/below = outside detectable range of Tearlab device)?
The value was 321 mOsms/L and 316 mOsms/L and 357 mOsms/L and 311 mOsms/L and 326 mOsms/L and 329 mOsms/L (2×) and 383 mOsms/L and 335 mOsms/L and below and 330 mOsms/L (2×) and 318 mOsms/L and 337 mOsms/L and 324 mOsms/L and 313 mOsms/L and 290 mOsms/L and 293 mOsms/L and 235 mOsms/L and 348 mOsms/L and 310 mOsms/L and 301 mOsms/L and 322 mOsms/L and 308 mOsms/L and 360 mOsms/L and 303 mOsms/L and 351 mOsms/L.

What about the “FV TL RE” value ([5]; right eye, follow-up visit after 210 mg daily for over 30 days, one line per patient) of the same compound?
Its value is 284 mOsms/L and 302 mOsms/L (3×) and 301 mOsms/L and 295 mOsms/L and 307 mOsms/L (2×) and 304 mOsms/L and 348 mOsms/L and 354 mOsms/L and 352 mOsms/L and 345 mOsms/L and 309 mOsms/L and 314 mOsms/L and 318 mOsms/L (2×) and 355 mOsms/L and below (2×) and 294 mOsms/L and 303 mOsms/L and 308 mOsms/L and 311 mOsms/L and 235 mOsms/L.
